Read-outs that look alike come from different tables or passages of the source.
How the values were obtained:
[1] = test system: MIA PaCa-2 cells; assay: In-vitro anti-proliferative activity in combination with gemcitabine on MIA PaCa-2 cells; type: cell-based; details: 72 h
Experimental: MIA PaCa-2 cells were seeded on a 384-well plate at 3000 cells/well, and 20 nM or 200 nM gemcitabine (GMC) was added. After overnight adherence culture, DMSO or the compounds serially 1:5-diluted from 100 nM were added. The viability was assessed 72 h after dosing by measuring the intracellular ATP content. The inhibition percentage of viable cells by the compounds was calculated by comparing with the DMSO group, and the IC50 value was calculated.

[2] = molecular target: recombinant protein Wee-1 (Homo sapiens (Human), UniProt P30291); assay: HTRF assay for inhibiting enzymatic activity of recombinant protein Wee-1; type: biochemical; details: compounds up to 200 nM, read-out: (IC50) Inhibitory activity against recombinant protein Wee-1
Experimental: The inhibitory effect of the compounds on the enzyme activity of recombinant protein Wee-1 was determined by HTRF. The procedures are as follows:
After DMSO or serially diluted compounds (up to 200 nM, 1:5 diluted) and recombinant proteins were co-incubated in a kinase buffer at 37° C. for 30 min before Fluorescein-PolyGAT and ATP were added, and the reaction was initiated by addition of a substrate. After incubation at room temperature for 90 min, an antibody and a detection solution were added, and after further incubation at room temperature for 60 min, fluorescence values were detected (excitation wavelength: 340 nm, emission wavelengths: 495 and 520 nm). The 520 nm/495 nm fluorescence intensity ratio value was calculated, and compared with that of the DMSO group, and then the inhibition percentages and IC50 values of the compounds were calculated.

[3] = with 20 nM gemcitabine, read-out: in combination with 20 nM GMC IC50

recombinant protein Wee-1, sequence (P30291 whole entry): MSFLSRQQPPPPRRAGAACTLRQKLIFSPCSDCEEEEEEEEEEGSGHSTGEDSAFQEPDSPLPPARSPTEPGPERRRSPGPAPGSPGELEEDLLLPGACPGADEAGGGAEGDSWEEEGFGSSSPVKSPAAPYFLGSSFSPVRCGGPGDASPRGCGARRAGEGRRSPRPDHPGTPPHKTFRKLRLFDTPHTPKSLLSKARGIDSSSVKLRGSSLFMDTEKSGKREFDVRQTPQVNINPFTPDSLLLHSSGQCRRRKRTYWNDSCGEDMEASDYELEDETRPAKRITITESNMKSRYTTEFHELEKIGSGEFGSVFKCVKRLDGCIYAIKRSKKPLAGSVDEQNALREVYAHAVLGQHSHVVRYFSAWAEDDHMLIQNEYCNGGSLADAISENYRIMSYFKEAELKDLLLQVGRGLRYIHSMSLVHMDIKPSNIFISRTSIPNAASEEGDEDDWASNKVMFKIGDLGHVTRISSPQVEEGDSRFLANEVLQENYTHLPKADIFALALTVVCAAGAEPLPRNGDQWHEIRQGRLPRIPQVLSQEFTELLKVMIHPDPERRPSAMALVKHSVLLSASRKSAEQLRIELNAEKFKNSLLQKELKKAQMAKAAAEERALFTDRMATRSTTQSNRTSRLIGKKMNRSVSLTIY

SMILES	IC50 ([1]; with 200 nM gemcitabine, read-out: in combination with 200 nM GMC IC50) [nM]	IC50 [2] [nM]	IC50 [1, 3] [nM]
CN1CCc2ccc(Nc3ncc(C#N)c(-c4cn(C)c5c(N=S(C)(C)=O)cccc45)n3)cc2C1 [Compound 79]	> 100	≤ 10	–
CN1CCc2ccc(Nc3nccc(Nc4cccc(N=S(C)(C)=O)n4)n3)cc2C1 [Compound 145]	–	> 50	> 100
C[C@@H]1CN(c2cc(Nc3ncc(C#N)c(Nc4cccc(N=S(C)(C)=O)n4)n3)cc3c2CCN(C)C3)C[C@@H](C)O1 [Compound 122]	–	≤ 10	49
CN1CCc2ccc(Nc3ncc(I)c(Nc4cccc(N=S(C)(C)=O)n4)n3)cc2C1 [Compound 105]	–	≤ 10	26.5
COC1CCN(c2cc(Nc3ncc(C#N)c(Nc4cccc(N=S(C)(C)=O)n4)n3)cc3c2CCN(C)C3)CC1 [Compound 120]	–	≤ 10	4.5
CN1CCc2c(cc(Nc3ncc(C#N)c(Nc4cccc(N=S(C)(C)=O)n4)n3)cc2C2=CCCCC2)C1 [Compound 152]	–	≤ 10	3.8
CN1CCc2c(cc(Nc3ncc(C#N)c(Nc4cccc(N=S(C)(C)=O)n4)n3)cc2-c2ccccc2)C1 [Compound 111]	–	≤ 10	6.5
CN1CCN(c2cc(Nc3ncc(C#N)c(Nc4cccc(N=S(C)(C)=O)n4)n3)cc3c2CCN(C)C3)CC1 [Compound 119]	–	≤ 10	2.6
CN1CCc2c(cc(Nc3ncc(C#N)c(Nc4cccc(N=S(C)(C)=O)n4)n3)cc2CN2CCOCC2)C1 [Compound 121]	–	≤ 10	113
Cc1cc(Nc2ncc(C#N)c(Nc3cccc(N=S(C)(C)=O)n3)n2)cc(C2CC2)c1N1CCN(C)CC1 [Compound 156]	–	≤ 10	6
CN1CCC(N2CCN(c3ccc(Nc4ncc(C#N)c(Nc5cccc(N=S(C)(C)=O)n5)n4)cc3)CC2)CC1 [Compound 62]	–	≤ 10	12.5
CN1CCc2c(cc(Nc3ncc(C#N)c(Nc4cccc(N=S(C)(C)=O)n4)n3)cc2C(C)(C)C)C1 [Compound 86]	–	≤ 10	–
COc1cc(Nc2ncc(C#N)c(Nc3ccc(F)c(N=S(C)(C)=O)n3)n2)cc2c1CCN(C)C2 [Compound 90]	–	≤ 10	–
CN1CCOc2ccc(Nc3ncc(C#N)c(Nc4cccc(N=S(C)(C)=O)n4)n3)cc2C1 [Compound 57]	–	≤ 10	–
CC(C)Oc1cc(Nc2ncc(C#N)c(Nc3ccc(F)c(N=S(C)(C)=O)n3)n2)cc2c1CCN(C)C2 [Compound 93]	–	≤ 10	–
CN1CCc2c(cc(Nc3ncc(C#N)c(Nc4ccc(F)c(N=S(C)(C)=O)n4)n3)cc2C2(C)CC2)C1 [Compound 102]	–	≤ 10	–
CN1Cc2cc(Nc3ncc(C#N)c(Nc4cccc(N=S(C)(C)=O)n4)n3)cc(C3CC3)c2C2(CC2)C1 [Compound 32]	–	≤ 10	–
CCc1cc(Nc2ncc(C#N)c(Nc3cccc(N=S4(=O)CCC4)n3)n2)cc2c1CCN(C)C2 [Compound 159]	–	≤ 10	–
CN1CCc2c(cc(Nc3ncc(C#N)c(Nc4cccc(N=S(C)(C)=O)n4)n3)cc2N(C)C)C1 [Compound 44]	–	≤ 10	–
CN1CCSc2ccc(Nc3ncc(C#N)c(Nc4cccc(N=S(C)(C)=O)n4)n3)cc2C1 [Compound 58]	–	≤ 10	–
COc1cc(Nc2ncc(C#N)c(Nc3cccc(N=S(C)(C)=O)n3)n2)cc2c1C(C)(C)CN(C)C2 [Compound 40]	–	≤ 10	–

SMILES	IC50 ([1]; with 200 nM gemcitabine, read-out: in combination with 200 nM GMC IC50) [nM]	IC50 [2] [nM]	IC50 [1, 3] [nM]
CN1CCc2c(cc(Nc3ncc(C#N)c(Nc4cccc(N=S(C)(C)=O)n4)n3)cc2N2CCC2)C1 [Compound 95]	–	≤ 10	–
CC(C)Oc1cc(Nc2ncc(C#N)c(Nc3cccc(N=S(C)(C)=O)n3)n2)cc2c1CCN(C)C2 [Compound 24]	–	≤ 10	–
CN1CCc2c(cc(Nc3ncc(C#N)c(Nc4nccc(N=S(C)(C)=O)n4)n3)cc2C2CC2)C1 [Compound 139]	–	≤ 10	–
CCc1cc(Nc2ncc(C#N)c(Nc3cccc(N=S(C)(=O)CC)n3)n2)cc2c1CCN(C)C2 (centres unmarked) [Compound 157]	–	≤ 10	–
Cc1cc(Nc2ncc(C#N)c(Nc3ccc(F)c(N=S(C)(C)=O)n3)n2)cc2c1CCN(C)C2 [Compound 73]	–	≤ 10	–
CS(C)(=O)=Nc1cccc(Nc2nc(Nc3ccc4c(c3)CN(C3CC3)CC4)ncc2C#N)n1 [Compound 47]	–	≤ 10	–
CCOc1cc(Nc2ncc(C#N)c(Nc3cccc(N=S(C)(C)=O)n3)n2)cc2c1CCN(C)C2 [Compound 23]	–	≤ 10	–
CN1CCc2ccc(Nc3ncc(C#N)c(Nc4cc(N=S(C)(C)=O)ccn4)n3)cc2C1 [Compound 67]	–	≤ 10	–
CN(C)CCN1CCc2ccc(Nc3ncc(C#N)c(Nc4cccc(N=S(C)(C)=O)n4)n3)cc2C1 [Compound 50]	–	≤ 10	–
CN1CCc2c(cc(Nc3ncc(C#N)c(Nc4cccc(N=S(C)(C)=O)n4)n3)cc2-c2ccncc2)C1 [Compound 126]	–	≤ 10	–
CCc1cc(Nc2ncc(C#N)c(Nc3nccc(N=S(C)(C)=O)n3)n2)cc2c1CCN(C)C2 [Compound 143]	–	≤ 10	–
CCN1CCc2ccc(Nc3ncc(C#N)c(Nc4cccc(N=S(C)(C)=O)n4)n3)cc2C1 [Compound 45]	–	≤ 10	–
CN1CCCc2ccc(Nc3ncc(C#N)c(Nc4cccc(N=S(C)(C)=O)n4)n3)cc2C1 [Compound 54]	–	≤ 10	–
COc1cc(Nc2ncc(C#N)c(Nc3cccc(N=S(C)(C)=O)n3)n2)cc2c1C1(CC1)CN(C)C2 [Compound 34]	–	≤ 10	–
CN1Cc2cc(Nc3ncc(C#N)c(Nc4cccc(N=S(C)(C)=O)n4)n3)ccc2C(C)(C)C1 [Compound 35]	–	≤ 10	–
CN1CCc2c(Br)cc(Nc3ncc(C#N)c(Nc4cccc(N=S(C)(C)=O)n4)n3)cc2C1 [Compound 27]	–	≤ 10	–
CN1CCc2c(CCO)cc(Nc3ncc(C#N)c(Nc4cccc(N=S(C)(C)=O)n4)n3)cc2C1 [Compound 132]	–	≤ 10	–
CN1CCc2ccc(Nc3ncc(C#N)c(Nc4cncc(N=S(C)(C)=O)n4)n3)cc2C1 [Compound 68]	–	≤ 10	–
Cc1cc(Nc2ncc(C#N)c(Nc3nc(N=S(C)(C)=O)ccc3F)n2)cc2c1CCN(C)C2 [Compound 75]	–	≤ 10	–
CC(C)c1cc(Nc2ncc(C#N)c(Nc3cccc(N=S(C)(C)=O)n3)n2)cc2c1C(C)(C)CN(C)C2 [Compound 38]	–	≤ 10	–
Cc1cc(Nc2ncc(C#N)c(Nc3cccc(N=S(C)(C)=O)n3)n2)cc2c1C1(CC1)CN(C)C2 [Compound 30]	–	≤ 10	–

SMILES	IC50 ([1]; with 200 nM gemcitabine, read-out: in combination with 200 nM GMC IC50) [nM]	IC50 [2] [nM]	IC50 [1, 3] [nM]
CCc1cc(Nc2ncc(C#N)c(Nc3cccc(N=S(=O)(CC)CC)n3)n2)cc2c1CCN(C)C2 [Compound 158]	–	≤ 10	–
CN1CCc2ccc(Nc3ncc(C#N)c(Nc4ccnc(N=S(C)(C)=O)c4)n3)cc2C1 [Compound 65]	–	≤ 10	–
CN(C)C1CC=Cc2ccc(Nc3ncc(C#N)c(Nc4cccc(N=S(C)(C)=O)n4)n3)cc2C1 (centres unmarked) [Compound 56]	–	≤ 10	–
CN1CCc2ccc(Nc3ncc(C#N)c(Nc4cncc(N=S(C)(C)=O)c4)n3)cc2C1 [Compound 66]	–	≤ 10	–
CCc1cc(Nc2ncc(C#N)c(Nc3cccc(N=S(C)(C)=O)n3)n2)cc2c1C(C)(C)CN(C)C2 [Compound 37]	–	≤ 10	–
CN1CCc2c(cc(Nc3ncc(C#N)c(Nc4ccc(F)c(N=S(C)(C)=O)n4)n3)cc2C2CCC2)C1 [Compound 98]	–	≤ 10	–
CN1CCc2c(cc(Nc3ncc(C#N)c(Nc4ccc(F)c(N=S(C)(C)=O)n4)n3)cc2C2CC2)C1 [Compound 94]	–	≤ 10	–
CN1CCc2ccc(Nc3ncc(C#N)c(Nc4nc(N=S(C)(C)=O)cc5ccccc45)n3)cc2C1 [Compound 72]	–	≤ 10	–
CCOc1cc(Nc2ncc(C#N)c(Nc3ccc(F)c(N=S(C)(C)=O)n3)n2)cc2c1CCN(C)C2 [Compound 92]	–	≤ 10	–
Cc1cc(Nc2ncc(C#N)c(Nc3ccc4c(n3)N=S(C)(=O)C4)n2)cc2c1CCN(C)C2 (centres unmarked) [Compound 88]	–	> 50	–
CCc1cc(Nc2ncc(C#N)c(Nc3ccc(F)c(N=S(C)(C)=O)n3)n2)cc2c1CCN(C)C2 [Compound 89]	–	≤ 10	–
CCCc1cc(Nc2ncc(C#N)c(Nc3cccc(N=S(C)(C)=O)n3)n2)cc2c1CCN(C)C2 [Compound 149]	–	≤ 10	–
CCc1cc(Nc2ncc(C#N)c(Nc3ccnc(N=S(C)(C)=O)n3)n2)cc2c1CCN(C)C2 [Compound 144]	–	≤ 10	–
CCc1cc(Nc2ncc(C#N)c(Nc3cccc(N=S(C)(C)=O)n3)n2)cc2c1CCNC2 [Compound 151]	–	≤ 10	–
CN(C)C1CCc2ccc(Nc3ncc(C#N)c(Nc4cccc(N=S(C)(C)=O)n4)n3)cc2C1 (centres unmarked) [Compound 51]	–	≤ 10	–
CN1Cc2cc(Nc3ncc(C#N)c(Nc4cccc(N=S(C)(C)=O)n4)n3)cc(C3CC3)c2C(C)(C)C1 [Compound 39]	–	≤ 10	–
CN1CCc2c(cc(Nc3ncc(C#N)c(Nc4ccnc(N=S(C)(C)=O)n4)n3)cc2C2CC2)C1 [Compound 140]	–	≤ 10	–
CCc1cc(Nc2ncc(C#N)c(Nc3cccc(N=S(C)(C)=O)n3)n2)cc2c1CCN(CC)C2 [Compound 141]	–	≤ 10	–
CC(C)c1cc(Nc2ncc(C#N)c(Nc3ccc(F)c(N=S(C)(C)=O)n3)n2)cc2c1CCN(C)C2 [Compound 91]	–	≤ 10	–
CN1CCc2c(CCN)cc(Nc3ncc(C#N)c(Nc4cccc(N=S(C)(C)=O)n4)n3)cc2C1 [Compound 135]	–	≤ 10	–
COc1ccc(Nc2nc(Nc3ccc4c(c3)CN(C)CC4)ncc2C#N)nc1N=S(C)(C)=O [Compound 84]	–	≤ 10	–

— patent publication US20240158369A1, “PYRIMIDINE COMPOUND AS WEE-1 INHIBITOR” (WIGEN BIOMEDICINE TECHNOLOGY (SHANGHAI) CO., LTD., priority 2021, published 2024)
